For the experiment, the target named is T1, cloned human dopamine D3 receptors (Homo sapiens, UniProt P35462).
T1 construct: expressed in transfected cells; membrane homogenate
T1 sequence (P35462 whole entry): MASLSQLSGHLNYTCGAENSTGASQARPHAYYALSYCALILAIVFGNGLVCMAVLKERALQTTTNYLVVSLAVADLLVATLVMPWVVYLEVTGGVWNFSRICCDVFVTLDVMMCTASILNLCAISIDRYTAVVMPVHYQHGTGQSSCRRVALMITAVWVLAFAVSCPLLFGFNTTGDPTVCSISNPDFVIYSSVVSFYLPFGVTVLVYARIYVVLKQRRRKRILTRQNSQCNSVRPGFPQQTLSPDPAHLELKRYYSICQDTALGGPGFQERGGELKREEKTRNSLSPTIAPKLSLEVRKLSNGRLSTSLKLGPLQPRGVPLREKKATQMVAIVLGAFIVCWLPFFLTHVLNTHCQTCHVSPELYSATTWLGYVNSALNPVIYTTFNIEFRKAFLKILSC
Kind of experiment: [N-Methyl-3H]Spiroperidol binding to cloned human dopamine D3 receptors. Particulars: read-out: D3 Ki. The method, boiled down: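 Stably transfected CHO cells expressing cloned human D3 receptor were used as membranes homogenized in 10% DMSO. Ligand was [N-methyl-3H]spiroperidol displacement.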
What is called Ki is a dissociation constant, usually derived from enzyme kinetics or from competition with a known ligand. As for `O=C(NCCc1cccc(Cl)c1)C1CC1CN1CCC(c2noc3ccsc23)CC1` (racemic) [compound 831799], the inhibition constant (Ki) is 12.1 nM.

For the compound `O=C(NC1CCN(Cc2ccccc2Cl)CC1)[C@@H]1C[C@H]1CN1CCN(c2csc3cc(C(F)(F)F)ccc23)CC1` [compound 832741], the inhibitory constant (Ki) came out at 6.03 nM.

`O=C(C1CC1CN1CCC(c2noc3ccsc23)CC1)N1CCN(S(=O)(=O)c2ccccc2)CC1` (racemic) [compound 831835]: the inhibition constant (Ki) came out at 234 nM.

Turning to `O=C([C@@H]1C[C@H]1CN1CCC(c2nsc3cc(Br)ccc23)CC1)N1CCCC(Cn2ccnc2)C1` (mixture of isomers) [A002329099], the Ki is 2.06 nM.

For the compound `O=C(NC1CCN(C(=O)Nc2ccc(Cl)cc2)CC1)[C@@H]1C[C@H]1CN1CCC(c2noc3ccsc23)CC1` [compound 833714], the inhibition constant Ki was determined as 4.16 nM.

Turning to `O=C(NCCCN1CCCC1)[C@@H]1C[C@H]1CN1CCN(c2csc3cc(C(F)(F)F)ccc23)CC1` [compound 831887], the Ki amounted to 6.5 nM.

Regarding `Cn1nc(N2CCN(C[C@@H]3C[C@H]3C(=O)NC3CCN(Cc4ccc(F)c(F)c4)CC3)CC2)c2sccc21` [A002436428], the Ki amounted to 2.17 nM.

For the compound `O=C(NCCc1cccs1)C1CC1CN1CCC(c2noc3ccsc23)CC1` (racemic) [compound 831385], the inhibition constant Ki amounted to 22.7 nM.

In the case of `O=C([C@@H]1C[C@H]1CN1CCC(c2noc3ccsc23)CC1)N1CCC(Cc2ccccc2)CC1` [compound 831194], the Ki stood at 5.06 nM.

Take `COc1cccc2c(C3CCN(C[C@@H]4C[C@H]4C(=O)NCCCN4CCCCC4)CC3)nn(C)c12` [compound 834056]: the inhibition constant (Ki) stood at 93.2 nM.

Consider `CCN(CC)C(=O)C1CCN(C(=O)C2CC2CN2CCC(c3noc4ccsc34)CC2)CC1` (racemic) [compound 831738], for which the inhibitory constant (Ki) was found to be 223 nM.

In the case of `O=C([C@@H]1C[C@H]1CN1CCC(c2noc3ccsc23)CC1)N1CCN(c2ccc(F)cc2)CC1` [compound 829465], the Ki came to 80.3 nM.

Take `COc1ccc2c(c1)c(N1CCN(C[C@@H]3C[C@H]3C(=O)NC3CCN(CC4CC4)CC3)CC1)nn2C` [compound 832744]: the Ki amounted to 1.37 nM.

Regarding `O=C(CCCN1CCN(c2noc3ccsc23)CC1)N1CCC(n2ccnc2)CC1` [compound 832212], the inhibition constant (Ki) worked out at 302 nM.

As to `O=C([C@@H]1C[C@H]1CN1CCN(c2csc3cc(C(F)(F)F)ccc23)CC1)N1CCN(Cc2ccc(Cl)c(Cl)c2)CC1` [compound 831881], the Ki was determined as 109 nM.

`O=C(NC1CCN(Cc2cc(F)ccc2F)CC1)[C@@H]1C[C@H]1CN1CCN(c2nn(-c3ccc(OC(F)(F)F)cc3)c3ccsc23)CC1` [A002437082]: the Ki came out at 9.23 nM.

In the case of `COc1cccc2c(C3CCN(C[C@@H]4C[C@H]4C(=O)N4CCCC(Cn5ccnc5)C4)CC3)noc12` (mixture of isomers) [compound 833910], the Ki came out at 1.09 nM.

With `CC1CCCCN1CCCNC(=O)[C@@H]1C[C@H]1CN1CCN(c2csc3cc(C(F)(F)F)ccc23)CC1` (mixture of isomers) [compound 832578], the inhibitory constant (Ki) is 25.8 nM.

For the compound `O=C([C@@H]1C[C@H]1CN1CCC(c2noc3c(C(F)(F)F)cccc23)CC1)N1CCC[C@@H](Cn2ccnc2)C1` [A002437360, (3S-Imidazol-1-ylmethyl-piperidin-1-yl)-{2R-[4-(7-trifluoromethyl-benzo[d]isoxazol-3-yl)-piperidin-1-ylmethyl]-1R-cyclopropyl}-methanone], the inhibition constant Ki is 0.239 nM.

Turning to `Cc1cc(NC(=O)C2CC2CN2CCC(c3noc4ccsc34)CC2)sn1` (racemic) [compound 829463], the Ki was found to be 4.76 nM.

Consider `COc1ccc2c(c1)c(N1CCN(C[C@@H]3C[C@H]3C(=O)NC3CCN(CC4CCCCC4)CC3)CC1)nn2C` [compound 832743], for which the Ki is 2.36 nM.

On to `COc1c(F)ccc2c(C3CCN(CCC4(C(=O)N[C@H]5CC[C@H](O)CC5)CC4)CC3)noc12` [compound 833476], for which the inhibition constant Ki came to 131 nM.

For the compound `O=C(C1CC1CN1CCC(c2noc3ccsc23)CC1)N1CCN(Cc2ccc(Cl)c(Cl)c2)CC1` (racemic) [compound 831390], the inhibition constant Ki came to 0.861 nM.

For `O=C(OCc1ccccc1)N1CCN(C(=O)C2CC2CN2CCC(c3noc4ccsc34)CC2)CC1` (racemic) [compound 831453], the Ki was determined as 18.3 nM.

In the case of `COc1cccc2c(C3CCN(C[C@@H]4C[C@H]4C(=O)NCCCN4CCCCC4)CC3)noc12` [compound 832108], the inhibition constant (Ki) was found to be 178 nM.

As to `O=C(NCCc1c[nH]c2cc(F)ccc12)[C@@H]1C[C@H]1CN1CCC(c2noc3ccsc23)CC1` [compound 830831], the Ki came to 3.19 nM.

Turning to `O=C([C@@H]1C[C@H]1CN1CCN(c2csc3cc(C(F)(F)F)ccc23)CC1)N1CCC[C@@H](Cn2ccnc2)C1` [compound 833097], the inhibitory constant (Ki) was 0.9 nM.

As to `COc1ccc2c(c1)c(N1CCN(C[C@@H]3C[C@H]3C(=O)N3CCC(n4ccnc4)CC3)CC1)nn2C` [compound 833123], the Ki is 26.3 nM.

With `O=C(NC1CC1)[C@@H]1C[C@H]1CN1CCC(c2noc3ccsc23)CC1` [compound 829460], the Ki was determined as 158 nM.

With `O=C(NCCN1CCCCC1)[C@@H]1C[C@H]1CN1CCN(c2csc3cc(C(F)(F)F)ccc23)CC1` [compound 831885], the Ki amounted to 35.3 nM.

Regarding `O=C(NC1CCN(Cc2ncc[nH]2)CC1)C1CC1CN1CCC(c2noc3ccsc23)CC1` (racemic) [compound 832392], the Ki amounted to 2.29 nM.

For `COc1ccc2c(c1)c(N1CCN(C[C@@H]3C[C@H]3C(=O)NC3CCN(Cc4ccc(F)cc4F)CC3)CC1)nn2C` [compound 833627], the inhibitory constant (Ki) is 1.63 nM.

Consider `CCOC(=O)c1cc2ccc(N3CCCN(CC4CC4C(=O)NC4CCC(CC)CC4)CC3)cc2s1` (racemic) [compound 830128], for which the inhibition constant Ki amounted to 69.7 nM.

Turning to `O=C([C@@H]1C[C@H]1CN1CCC(c2noc3ccsc23)CC1)N1CCC(Cn2ccnc2)CC1` [compound 831957], the inhibition constant Ki turned out to be 63.2 nM.

For the compound `NS(=O)(=O)c1ccc(CCNC(=O)C2CC2CN2CCC(c3noc4ccsc34)CC2)cc1` (racemic) [compound 831701], the inhibition constant Ki was 55.7 nM.

Regarding `O=C([C@@H]1C[C@H]1CN1CCN(c2nc3cccc4c3n2CCC4)CC1)N1CCC(Cn2ccnc2)CC1` [A002437351], the inhibitory constant (Ki) was 32.7 nM.

`CN1CCCC1CCNC(=O)[C@@H]1C[C@H]1CN1CCC(c2noc3ccsc23)CC1` (single isomer, unassigned) [compound 832513]: the Ki worked out at 55.4 nM.

Turning to `O=C(NCCS(=O)(=O)c1cccc2c(Cl)cccc12)[C@@H]1C[C@H]1CN1CCC(c2noc3ccsc23)CC1` [compound 832528], the inhibition constant (Ki) came out at 48.5 nM.

With `O=C([C@@H]1C[C@H]1CN1CCN(c2csc3cc(C(F)(F)F)ccc23)CC1)N1CCC[C@@H](CO)C1` [A002438637], the Ki is 21.2 nM.

With `CN(C)CCCNC(=O)[C@@H]1C[C@H]1CN1CCN(c2csc3cc(C(F)(F)F)ccc23)CC1` [compound 831888], the inhibitory constant (Ki) amounted to 17.5 nM.

Consider `O=C(N[C@H]1CC[C@H](O)CC1)[C@@H]1C[C@H]1CN1CCC(c2nn(-c3ccc(C(F)(F)F)cc3)c3ccccc23)CC1` [compound 831953], for which the inhibition constant (Ki) stood at 37.4 nM.

Take `O=C(NC1CCN(Cc2cccc(Cl)c2)CC1)C1CC1CN1CCC(c2noc3ccsc23)CC1` (racemic) [compound 831995]: the inhibition constant (Ki) worked out at 4.73 nM.

Consider `O=C(NC1CCN(CC2CC2)CC1)[C@@H]1C[C@H]1CN1CCC(c2noc3ccsc23)CC1` [compound 833483], for which the Ki was 0.93 nM.
